The record followed here is BindingDB's records for doi:10.1016/j.chembiol.2008.10.014 (Columbia University, 2008).

The test deals with T1, Olfactory receptor (Rattus norvegicus, UniProt D3Z9H0).
T1 sequence (D3Z9H0 whole entry): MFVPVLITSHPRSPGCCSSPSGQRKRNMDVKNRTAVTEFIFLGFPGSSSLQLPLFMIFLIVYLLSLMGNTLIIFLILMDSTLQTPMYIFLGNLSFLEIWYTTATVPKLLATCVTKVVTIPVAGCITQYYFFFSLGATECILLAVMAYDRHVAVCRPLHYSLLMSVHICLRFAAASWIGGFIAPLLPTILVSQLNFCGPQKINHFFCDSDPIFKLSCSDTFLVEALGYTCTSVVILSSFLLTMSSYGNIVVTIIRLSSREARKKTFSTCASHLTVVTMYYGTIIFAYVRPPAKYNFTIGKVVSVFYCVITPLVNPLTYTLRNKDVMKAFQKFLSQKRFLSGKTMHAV
Kind of test: Inhibition Assay. The text has this:
Inhibition assay of olfactory receptors 17 activation.

In the case of `O=CCCC1CCCC1` [Aldehydes, 4], half-maximal inhibition (IC50) was put at 60 µM. In other words, the double-digit micromolar range.
The figure for `O=CCC1CCCCC1` [Aldehydes, 5] is 37 µM; for `O=CC1CCCCCC1` [Aldehydes, 6] it is 57 µM.
With `CCCCC=O` [Aldehydes, C5], the IC50 (as a rule, the concentration that inhibits the measured activity by half) came to 460 µM. Against the preceding compound, the IC50 is about 8.1-fold higher.
As to `CCCCCC=O` [Aldehydes, C6], the midpoint of inhibition, the IC50, lay at 133 µM.
